Test results taken from the NIST ThermoML archive (doi:10.1016/j.jct.2019.02.028).

Test: xn = mol fraction of the nth substance listed
Conditions: Gas, Burnett expansion method

C=C(F)C(F)(F)F [2,3,3,3-tetrafluoro-1-propene] + FCF
Conditions | mass density [kg/m3]
333.59 K, 860.21 kPa, x2 = 0.698 | 23.99
333.59 K, 1119 kPa, x2 = 0.259 | 46.7
333.59 K, 1128.1 kPa, x2 = 0.449 | 40.52
333.59 K, 1537.9 kPa, x2 = 0.259 | 70.09
333.6 K, 552.32 kPa, x2 = 0.874 | 12.52
333.6 K, 589.81 kPa, x2 = 0.698 | 15.97
333.61 K, 804.94 kPa, x2 = 0.874 | 18.8
333.61 K, 1164.8 kPa, x2 = 0.874 | 28.24
333.61 K, 1308.2 kPa, x2 = 0.119 | 63.18
333.64 K, 1653.6 kPa, x2 = 0.874 | 42.42
338.52 K, 549.73 kPa, x2 = 0.449 | 17.96
338.52 K, 1260 kPa, x2 = 0.698 | 36.03
338.52 K, 1772.2 kPa, x2 = 0.698 | 54.11
338.52 K, 2408.6 kPa, x2 = 0.698 | 81.28
338.53 K, 875.76 kPa, x2 = 0.698 | 23.99
338.53 K, 960.84 kPa, x2 = 0.119 | 42.01
338.53 K, 1150.8 kPa, x2 = 0.449 | 40.51
338.53 K, 2177.3 kPa, x2 = 0.449 | 91.55
338.54 K, 554.13 kPa, x2 = 0.259 | 20.7
338.54 K, 801.95 kPa, x2 = 0.449 | 26.97
338.54 K, 1788.2 kPa, x2 = 0.119 | 94.94
338.54 K, 2337.3 kPa, x2 = 0.874 | 63.7
338.54 K, 3099.5 kPa, x2 = 0.698 | 122
338.54 K, 3099.9 kPa, x2 = 0.874 | 96.05
338.54 K, 3850.5 kPa, x2 = 0.874 | 144.78
338.55 K, 671.73 kPa, x2 = 0.119 | 27.97
338.55 K, 1615.3 kPa, x2 = 0.449 | 60.93
338.55 K, 1689.4 kPa, x2 = 0.874 | 42.41
338.56 K, 599.87 kPa, x2 = 0.698 | 15.97
338.56 K, 803.81 kPa, x2 = 0.259 | 31.09
338.56 K, 1143.1 kPa, x2 = 0.259 | 46.69
338.56 K, 1187 kPa, x2 = 0.874 | 28.23
338.56 K, 1577.4 kPa, x2 = 0.259 | 70.08
338.56 K, 2083.1 kPa, x2 = 0.259 | 105.4
338.57 K, 819.08 kPa, x2 = 0.874 | 18.8
338.57 K, 1339.9 kPa, x2 = 0.119 | 63.15
338.61 K, 561.65 kPa, x2 = 0.874 | 12.52
343.46 K, 1811.6 kPa, x2 = 0.698 | 54.1
343.47 K, 558.86 kPa, x2 = 0.449 | 17.95
343.47 K, 2473.8 kPa, x2 = 0.698 | 81.25
343.48 K, 1650.8 kPa, x2 = 0.449 | 60.9
343.48 K, 3195 kPa, x2 = 0.874 | 95.98
343.49 K, 609.66 kPa, x2 = 0.698 | 15.97
343.49 K, 980.04 kPa, x2 = 0.119 | 42
343.49 K, 1173.6 kPa, x2 = 0.449 | 40.5
343.49 K, 1284.8 kPa, x2 = 0.698 | 36.02
343.5 K, 815.99 kPa, x2 = 0.449 | 26.96
343.5 K, 1724.4 kPa, x2 = 0.874 | 42.4
343.5 K, 1840.8 kPa, x2 = 0.119 | 94.9
343.5 K, 2238.7 kPa, x2 = 0.449 | 91.51
343.5 K, 2312 kPa, x2 = 0.119 | 142.7
343.5 K, 3209.6 kPa, x2 = 0.698 | 121.97
343.51 K, 683.81 kPa, x2 = 0.119 | 27.96
343.51 K, 891.35 kPa, x2 = 0.698 | 23.98
343.51 K, 1370.9 kPa, x2 = 0.119 | 63.13
343.51 K, 1616.3 kPa, x2 = 0.259 | 70.08
343.51 K, 2395 kPa, x2 = 0.874 | 63.68
343.51 K, 2864.8 kPa, x2 = 0.449 | 137.45
343.51 K, 4012.3 kPa, x2 = 0.874 | 144.62
343.52 K, 1167 kPa, x2 = 0.259 | 46.68
343.52 K, 2146.2 kPa, x2 = 0.259 | 105.38
343.54 K, 563.91 kPa, x2 = 0.259 | 20.69
343.54 K, 833.17 kPa, x2 = 0.874 | 18.79
343.54 K, 1209.2 kPa, x2 = 0.874 | 28.23
343.55 K, 818.98 kPa, x2 = 0.259 | 31.08
343.56 K, 570.8 kPa, x2 = 0.874 | 12.51
348.39 K, 1850.8 kPa, x2 = 0.698 | 54.08
348.42 K, 568.01 kPa, x2 = 0.449 | 17.95
348.42 K, 1308.9 kPa, x2 = 0.698 | 36.01
348.42 K, 2538.2 kPa, x2 = 0.698 | 81.23
348.43 K, 695.54 kPa, x2 = 0.119 | 27.95
348.43 K, 1196 kPa, x2 = 0.449 | 40.49
348.43 K, 3289.2 kPa, x2 = 0.874 | 95.91
348.44 K, 619.54 kPa, x2 = 0.698 | 15.96
348.45 K, 906.67 kPa, x2 = 0.698 | 23.97
348.45 K, 999.4 kPa, x2 = 0.119 | 41.99
348.45 K, 1401.8 kPa, x2 = 0.119 | 63.11
348.45 K, 1687.6 kPa, x2 = 0.449 | 60.87
348.45 K, 1759.4 kPa, x2 = 0.874 | 42.38
348.45 K, 1892.6 kPa, x2 = 0.119 | 94.85
348.45 K, 2299.3 kPa, x2 = 0.449 | 91.46
348.45 K, 2405.8 kPa, x2 = 0.119 | 142.61
348.45 K, 3317.7 kPa, x2 = 0.698 | 121.94
348.46 K, 573.31 kPa, x2 = 0.259 | 20.69
348.46 K, 830.53 kPa, x2 = 0.449 | 26.96
348.46 K, 1654.8 kPa, x2 = 0.259 | 70.07
348.46 K, 2452 kPa, x2 = 0.874 | 63.66
348.46 K, 2967.9 kPa, x2 = 0.449 | 137.38
348.47 K, 833.57 kPa, x2 = 0.259 | 31.08
348.47 K, 847.11 kPa, x2 = 0.874 | 18.79
348.47 K, 1190.6 kPa, x2 = 0.259 | 46.68
348.47 K, 2210.4 kPa, x2 = 0.259 | 105.36
348.47 K, 4171.1 kPa, x2 = 0.874 | 144.45
348.48 K, 1231.2 kPa, x2 = 0.874 | 28.22
348.51 K, 579.9 kPa, x2 = 0.874 | 12.51
353.35 K, 1889.8 kPa, x2 = 0.698 | 54.07
353.37 K, 1218.4 kPa, x2 = 0.449 | 40.48
353.37 K, 2601.9 kPa, x2 = 0.698 | 81.21
353.38 K, 577.17 kPa, x2 = 0.449 | 17.94
353.38 K, 1943.6 kPa, x2 = 0.119 | 94.8
353.38 K, 3382.4 kPa, x2 = 0.874 | 95.84
353.39 K, 629.39 kPa, x2 = 0.698 | 15.96
353.39 K, 707.68 kPa, x2 = 0.119 | 27.94
353.39 K, 922.11 kPa, x2 = 0.698 | 23.97
353.39 K, 1432.5 kPa, x2 = 0.119 | 63.08
353.39 K, 1723.8 kPa, x2 = 0.449 | 60.85
353.39 K, 2359.1 kPa, x2 = 0.449 | 91.42
353.39 K, 3068.7 kPa, x2 = 0.449 | 137.31
353.4 K, 582.53 kPa, x2 = 0.259 | 20.69
353.4 K, 844.78 kPa, x2 = 0.449 | 26.95
353.4 K, 1018.6 kPa, x2 = 0.119 | 41.97
353.4 K, 1333.5 kPa, x2 = 0.698 | 36
353.4 K, 1794.1 kPa, x2 = 0.874 | 42.37
353.4 K, 2493.2 kPa, x2 = 0.119 | 142.52
353.4 K, 2508.3 kPa, x2 = 0.874 | 63.64
353.4 K, 3424.3 kPa, x2 = 0.698 | 121.92
353.41 K, 1213.9 kPa, x2 = 0.259 | 46.67
353.41 K, 1693 kPa, x2 = 0.259 | 70.07
353.41 K, 2895.5 kPa, x2 = 0.259 | 158.94
353.41 K, 4232.8 kPa, x2 = 0.698 | 183.2
353.41 K, 4326.6 kPa, x2 = 0.874 | 144.29
353.42 K, 848.3 kPa, x2 = 0.259 | 31.07
